US20240269278A1, “ANTI-CD47 ANTIBODY FOR COMBINED TREATMENT OF BLOOD TUMOR” (Nanjing Shunxin Pharmaceuticals Co., Ltd. of Chiatai …, priority 2021, published 2024)

Legend:
[1] = system: human acute myeloblastic leukemia MOLM-16; test: Subcutaneous mouse xenograft tumor of MOLM-16; assay type: in vivo
Experimental: The experimental animals were NOD-SCID mice (5-6 weeks old, female) purchased from Beijing Huafukang Biotechnology Co., Ltd., with the production license number of SCXK (Jing) 2019-0008 and the animal certification number of 110322211100910838. The housing environment was in a SPF grade. Human acute myelocytic leukemia MOLM-16 cells were purchased from DSMZ. MOLM-16 cells were cultured in an incubator at 37° C. with 5% CO2 in air. Subculturing was performed twice a week, and when the cells were in a logarithmic growth phase, the cells were collected, counted, and inoculated. 1×10^7 MOLM-16 cells were inoculated to each mouse subcutaneously, and when tumors reached the volume of 100-150 mm^3, the mice were divided into groups and injected with drugs intravenously (IV) at the administration volume of 0.1 mL/10 g of body weight.
(§1) The experimental index was to investigate the effects of the drugs on the tumor growth, and the specific index was T/C % or the tumor growth inhibition rate (TGI %, tumor growth inhibition).
(§2) Tumor diameters were measured twice a week with a vernier caliper and tumor volume (V) was calculated according to the following formula: […]
(§3) where a and b represent length and width, respectively.
(§4) T/C (%)=(T−T0)/(C−C0)×100,
(§5) where T and C are the tumor volumes of animals at the end of the experiment in the test group and the negative control group, respectively; T0 and C0 are the tumor volumes of animals at the beginning of the experiment in the test group and the negative control group, respectively.
(§6) If the volume of tumor shrinks compared with its initial volume, i.e., T<T0 […], it is defined as partial regression (PR) of tumor; if the tumor completely disappears, it is defined as complete regression (CR) of tumor.
At the end of the experiment, the animals were sacrificed by CO2 anesthesia and dissected to give the tumors. The tumors were photographed.

[2] = system: HL60 cells; test: Promotion of macrophage phagocytosis of tumor cells (flow cytometry); assay type: cell-based; conditions: CFSE-labeled HL60 cells, human macrophages
Experimental: The ability of the anti-CD47 antibodies to promote the phagocytosis of tumor cells by macrophages having SIRPα on the cell surface was determined based on flow cytometry.
Monocytes were isolated from human peripheral blood mononuclear cells (PBMC, Sailybio, Cat. No. 190056) using a monocyte isolation kit ([…], Cat. No. 19058), plated into a 24-well plate (Greiner bio-one, Cat. No. 662-160) at […] cells per well, and induced under 100 ng/mL stimulating factor M-CSF (R&D Systems, Cat. No. 216-MC-010) for 7 days to form macrophages. 1×10^6 target cells HL60 (Shanghai Institute of Biochemistry and Cell Biology, Chinese Academy of Sciences, Cat. No. TCHu23) were suspended in […] CFSE (BD Biosciences, Cat. No. 565082) fluorescent dye (diluted with a PBS buffer to the desired concentration), incubated in a water bath at 37° C. in the dark for 15 min, and washed with a PBS buffer to prepare CFSE-labeled HL60 cells, which were then incubated with each of 10 μg/mL and 1 μg/mL anti-CD47 antibodies (see Table 3 for chimenic antibodies, and see Table 4 for humanized antibodies) in an incubator at 37° C. with 5% CO2 for 1-2 h. The HL60 cells after the incubation were washed three times with a PBS buffer and added to the macrophages. […] The rate of phagocytosis (%) by the macrophages was determined using a flow cytometer (BD Biosciences, model: C6).

[3] = system: Raji cells; test: Hematologic tumor mouse model of lymphoma Raji cells, survival; assay type: in vivo, NOD/SCID mice; conditions: 10 mg/kg intraperitoneal, 21 consecutive days
Experimental: A hematologic tumor mouse model was established using hematologic tumor Raji cells. The anti-CD47 antibodies were applied to the model for the evaluation of the pharmacodynamic activity.
A suspension of Raji cells in a PBS buffer was prepared at a concentration of 5×10^6 cells/mL, and was injected into female NOD/SCID mice via the tail vein at 0.1 mL/mouse. […] The administration was performed by intraperitoneal injection in doses of 10 mg/kg for 21 consecutive days. The survival time of the animals was observed.

[4] = system: human B-cell lymphoma Daudi; test: Subcutaneous mouse xenograft tumor of Daudi; assay type: in vivo, NOD-SCID mice; conditions: IV D0, 3, hz14A9-2.3 1.5 mg/kg, Rituximab 3 mg/kg
Experimental: The experimental animals were NOD-SCID mice (5-6 weeks old, male) purchased from Shanghai Lingchang Biotechnology Co., Ltd., with the production license number of SCXK (Hu) 2018-0003 and the animal certification number of 20180003014870. The housing environment was in a SPF grade. Human B-cell lymphoma Daudi cells were purchased from Cell Bank of the Chinese Academy of Sciences. Daudi cells were cultured in an incubator at 37° C. with 5% CO2 in air. Subculturing was performed twice a week, and when the cells were in a logarithmic growth phase, the cells were collected, counted, and inoculated. 1×10^7 Daudi cells were inoculated to each mouse subcutaneously, and when tumors reached the volume of about 100 mm^3, the mice were divided into groups and injected with drugs intravenously (IV) once every 3 days (Q3D) for a total of 2 times at the injection volume of 0.1 mL/10 g of body weight.
as §1, §2, §3, §4, §5, §6
At the end of the experiment (D24), the animals were sacrificed by CO2 anesthesia and dissected to give the tumors. The tumors were photographed.

[5] = Azacitadine 2.5 mg/kg IV QD × 5

Molecule: Nc1ncn([C@@H]2O[C@H](CO)[C@@H](O)[C@H]2O)c(=O)n1 [Azacitadine, 4-amino-1-β-D-ribofuranosyl-1,3,5-triazin-2(1H)-one]
- T/C(%) D12 ([1]; Azacitadine 1 mg/kg IV QD × 5): 50%
- Tumor growth inhibition (%) D12 ([1]; Azacitadine 1 mg/kg IV QD × 5): 50%
- T/C(%) D12 [1, 5]: 18%
- Tumor growth inhibition (%) D12 [1, 5]: 82%
- mean tumor volume D17 ([1]; azacitadine 1 mg/kg IV QD×5 monotherapy): 3729.5 ± 436.4 mm^3
- mean tumor volume D17 ([1]; azacitadine 2.5 mg/kg IV QD×5 monotherapy): 1920.7 ± 375.6 mm^3

Molecule: Hu5F9: the positive antibody Hu5F9, comparison anti-CD47 antibody [reference compound]
- rate of phagocytosis ([2]; 1 μg/mL antibody): 67.5%
- rate of phagocytosis ([2]; 10 μg/mL antibody): 72.35%
- day on which all the animals in the group died [3]: 30 days
- median survival time [3]: 18.5 days

Molecule: Rituximab: anti-CD20 monoclonal antibody [reference compound]
- T/C(%) D24 [4]: 64%
- Tumor growth inhibition (%) D24 [4]: 36%
- Partial regression (number of tumors) ([4]; hIgG4 4.5 mg/kg, 6 mice per group (hIgG4 10)): 0
